“And” between values parts separate entries of the source, which are not always exact repeats. Identical values can stand only once.

Data on two molecules can be found in PMC11412156 (Journal of medicinal chemistry, 2024).

The target of one series is T1, MsEH (Mus musculus, UniProt P34914).
T1 sequence (P34914 1-554): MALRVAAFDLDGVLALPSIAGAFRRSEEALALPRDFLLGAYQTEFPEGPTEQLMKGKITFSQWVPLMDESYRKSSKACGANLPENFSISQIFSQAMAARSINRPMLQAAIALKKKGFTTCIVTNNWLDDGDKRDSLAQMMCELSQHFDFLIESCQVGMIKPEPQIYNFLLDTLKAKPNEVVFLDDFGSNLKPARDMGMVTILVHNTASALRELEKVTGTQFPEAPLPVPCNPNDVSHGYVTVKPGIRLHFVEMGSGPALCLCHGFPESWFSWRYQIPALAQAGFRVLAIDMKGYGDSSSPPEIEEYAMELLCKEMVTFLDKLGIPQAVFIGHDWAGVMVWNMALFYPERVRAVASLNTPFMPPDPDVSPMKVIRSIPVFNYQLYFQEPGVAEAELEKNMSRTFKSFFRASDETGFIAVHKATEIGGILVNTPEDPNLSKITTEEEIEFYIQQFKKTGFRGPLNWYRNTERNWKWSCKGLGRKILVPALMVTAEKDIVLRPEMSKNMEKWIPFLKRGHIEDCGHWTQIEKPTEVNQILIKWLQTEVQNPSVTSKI
Briefly: fluorescent-based sEH assay with PHOME as substrate. In kind it is biochemical.

The target of a further series is HDAC1 (Homo sapiens, UniProt Q13547). The experiment in a line: HDAC enzyme-based fluorogenic assay, HDAC1. Type of series: biochemical.
Chain of HDAC1 (Q13547 whole entry): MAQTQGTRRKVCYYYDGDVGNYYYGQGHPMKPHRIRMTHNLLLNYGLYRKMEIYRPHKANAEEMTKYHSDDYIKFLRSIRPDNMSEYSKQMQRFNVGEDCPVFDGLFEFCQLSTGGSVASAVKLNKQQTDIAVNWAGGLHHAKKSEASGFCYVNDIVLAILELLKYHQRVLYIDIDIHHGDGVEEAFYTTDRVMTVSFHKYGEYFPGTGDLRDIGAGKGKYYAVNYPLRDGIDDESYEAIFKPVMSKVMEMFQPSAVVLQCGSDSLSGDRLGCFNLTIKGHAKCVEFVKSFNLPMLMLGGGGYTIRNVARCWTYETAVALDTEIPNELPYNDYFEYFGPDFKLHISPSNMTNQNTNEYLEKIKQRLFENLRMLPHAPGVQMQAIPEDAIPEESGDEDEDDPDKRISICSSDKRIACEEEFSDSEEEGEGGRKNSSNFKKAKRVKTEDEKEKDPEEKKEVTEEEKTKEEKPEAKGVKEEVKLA
For another series, the target named is T2, HsEH (Homo sapiens, UniProt P34913).
T2 sequence (P34913 1-555): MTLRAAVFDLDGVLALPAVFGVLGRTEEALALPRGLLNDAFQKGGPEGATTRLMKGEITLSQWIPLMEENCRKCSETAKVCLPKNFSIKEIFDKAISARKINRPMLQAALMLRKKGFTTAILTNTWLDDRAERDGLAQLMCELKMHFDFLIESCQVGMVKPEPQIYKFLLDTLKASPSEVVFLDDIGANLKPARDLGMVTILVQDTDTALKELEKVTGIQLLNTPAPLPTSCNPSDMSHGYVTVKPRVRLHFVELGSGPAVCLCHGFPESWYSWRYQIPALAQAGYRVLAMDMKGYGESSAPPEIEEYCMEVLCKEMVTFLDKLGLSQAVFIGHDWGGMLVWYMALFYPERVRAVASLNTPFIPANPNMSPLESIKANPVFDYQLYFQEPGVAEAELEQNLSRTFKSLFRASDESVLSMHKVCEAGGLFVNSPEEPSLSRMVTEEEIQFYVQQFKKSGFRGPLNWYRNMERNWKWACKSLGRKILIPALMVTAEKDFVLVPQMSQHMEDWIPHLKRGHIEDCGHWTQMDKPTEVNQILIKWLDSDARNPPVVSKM
The experiment in a line: fluorescent-based sEH assay with PHOME as substrate. In kind it is biochemical.

Series [1] can be described thus: Plasma protein binding by equilibrium dialysis. In kind it is in vitro ADME. Particulars: rat.
A further series concerns the target T3, HDAC6 (Homo sapiens, UniProt Q9UBN7).
T3 sequence (Q9UBN7 1-1215): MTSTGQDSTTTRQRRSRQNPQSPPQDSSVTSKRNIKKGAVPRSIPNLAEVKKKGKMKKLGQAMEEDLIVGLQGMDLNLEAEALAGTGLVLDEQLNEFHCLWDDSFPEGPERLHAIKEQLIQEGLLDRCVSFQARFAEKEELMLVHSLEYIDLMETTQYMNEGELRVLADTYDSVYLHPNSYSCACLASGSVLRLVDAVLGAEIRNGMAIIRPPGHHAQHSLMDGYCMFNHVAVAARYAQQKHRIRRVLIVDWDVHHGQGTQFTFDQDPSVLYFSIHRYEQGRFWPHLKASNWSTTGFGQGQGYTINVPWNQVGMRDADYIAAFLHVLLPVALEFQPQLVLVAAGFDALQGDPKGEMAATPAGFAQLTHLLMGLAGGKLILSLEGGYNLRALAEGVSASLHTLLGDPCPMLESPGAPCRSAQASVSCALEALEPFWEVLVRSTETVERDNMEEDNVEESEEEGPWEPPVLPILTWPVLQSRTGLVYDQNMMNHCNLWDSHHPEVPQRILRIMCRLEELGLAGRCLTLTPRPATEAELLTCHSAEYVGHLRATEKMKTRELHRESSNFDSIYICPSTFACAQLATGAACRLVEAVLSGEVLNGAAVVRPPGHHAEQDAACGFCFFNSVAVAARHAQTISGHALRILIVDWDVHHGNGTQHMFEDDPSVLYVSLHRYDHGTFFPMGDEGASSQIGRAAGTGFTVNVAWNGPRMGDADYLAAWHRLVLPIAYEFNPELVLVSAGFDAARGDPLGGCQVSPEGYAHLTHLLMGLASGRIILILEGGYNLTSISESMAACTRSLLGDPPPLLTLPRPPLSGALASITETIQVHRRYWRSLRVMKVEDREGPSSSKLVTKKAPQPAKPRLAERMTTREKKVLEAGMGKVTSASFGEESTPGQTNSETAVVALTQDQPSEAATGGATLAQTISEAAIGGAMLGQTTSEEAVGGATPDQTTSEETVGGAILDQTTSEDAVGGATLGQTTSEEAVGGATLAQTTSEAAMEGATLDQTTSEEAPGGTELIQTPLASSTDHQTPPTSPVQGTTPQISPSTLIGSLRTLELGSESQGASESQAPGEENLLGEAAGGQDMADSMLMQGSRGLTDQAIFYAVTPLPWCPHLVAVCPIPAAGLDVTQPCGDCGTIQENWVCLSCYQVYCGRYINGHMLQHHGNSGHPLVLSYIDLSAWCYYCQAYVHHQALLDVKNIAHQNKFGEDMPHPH
Briefly: HDAC enzyme-based fluorogenic assay, HDAC6. In kind it is biochemical. The note with it: for HDAC6 inhibitor rate: final concentration of 2 μM, preliminary screen; for Selectivity Index HDAC1/HDAC6 / Selectivity Index HDAC2/HDAC6 / Selectivity Index HDAC3/HDAC6 / Selectivity Index HDAC8/HDAC6 / Selectivity Index HDAC11/HDAC6: ratio of IC50 values.

The next series addresses T4, HDAC11 (Homo sapiens, UniProt Q96DB2).
T4 sequence (Q96DB2 1-347): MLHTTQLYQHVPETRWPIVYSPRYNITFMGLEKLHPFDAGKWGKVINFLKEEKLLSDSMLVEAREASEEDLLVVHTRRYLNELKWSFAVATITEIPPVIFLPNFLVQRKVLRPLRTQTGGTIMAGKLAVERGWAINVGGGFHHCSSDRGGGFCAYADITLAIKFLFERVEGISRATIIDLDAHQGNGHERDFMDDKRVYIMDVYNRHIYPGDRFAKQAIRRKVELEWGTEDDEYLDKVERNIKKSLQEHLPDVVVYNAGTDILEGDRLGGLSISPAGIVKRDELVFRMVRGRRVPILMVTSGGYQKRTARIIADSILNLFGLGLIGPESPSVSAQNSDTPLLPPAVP
Briefly: HDAC enzyme-based fluorogenic assay, HDAC11. Type of series: biochemical.

In a further series the target is HDAC2 (Homo sapiens, UniProt Q92769). Briefly: HDAC enzyme-based fluorogenic assay, HDAC2. In kind it is biochemical.
Chain of HDAC2 (Q92769 whole entry): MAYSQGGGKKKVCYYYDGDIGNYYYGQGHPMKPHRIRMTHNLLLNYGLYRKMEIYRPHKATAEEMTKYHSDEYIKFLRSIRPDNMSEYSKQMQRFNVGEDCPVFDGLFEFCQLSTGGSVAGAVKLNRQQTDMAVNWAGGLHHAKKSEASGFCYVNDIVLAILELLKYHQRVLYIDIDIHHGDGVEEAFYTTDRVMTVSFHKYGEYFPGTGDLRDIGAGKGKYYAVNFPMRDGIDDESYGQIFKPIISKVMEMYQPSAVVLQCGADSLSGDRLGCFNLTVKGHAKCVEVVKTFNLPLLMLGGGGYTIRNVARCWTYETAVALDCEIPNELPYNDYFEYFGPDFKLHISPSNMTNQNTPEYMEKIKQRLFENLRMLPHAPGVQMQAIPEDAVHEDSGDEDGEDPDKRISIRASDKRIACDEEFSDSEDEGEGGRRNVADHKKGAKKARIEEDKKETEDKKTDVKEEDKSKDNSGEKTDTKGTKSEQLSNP

As a reminder, the IC50 is the point on the concentration scale where inhibition reaches its midpoint. A lower IC50 goes with higher potency. By fraction unbound is commonly meant the share of the substance not bound to proteins or other matrix. On to `O=C(CCCCCCNC(=O)[C@H]1CCCN(C(=O)c2ccc(NC(=O)Nc3ccc(Cl)c(F)c3)c(F)c2)C1)NO` [Compound 28g, (S)-1-(4-(3-(4-Chloro-3-fluorophenyl)ureido)-3-fluorobenzoyl)-N-(7-(hydroxyamino)-7-oxoheptyl)piperidine-3-carboxamide], for which, on MsEH, half-maximal inhibition (IC50) required 46.8 nM. For the same molecule, at HDAC1, the IC50 stood at 1150 nM. Besides, on HsEH, the IC50 came to 0.9 nM. In series [1], this molecule had a fraction unbound of 0.113. Besides, at HDAC6, half-maximal inhibition (IC50) was put at 8 nM; the HDAC6 inhibitor rate is > 91% and 99.78%; the “Selectivity Index HDAC1/HDAC6” value is reported as 144; the “Selectivity Index HDAC2/HDAC6” value stood at 62. For the same molecule, on HDAC6, the “Selectivity Index HDAC3/HDAC6” value was found to be 160, the “Selectivity Index HDAC8/HDAC6” value is on record as 8 and the “Selectivity Index HDAC11/HDAC6” value is 58. This molecule gave an IC50 against HDAC11 of 464 nM. This molecule also showed an IC50 at HDAC2 of 492 nM.

For the molecule `O=C(CCCCCCNC(=O)[C@H]1CCCN(C(=O)c2ccc(NC(=O)Nc3cc(F)cc(F)c3)c(F)c2)C1)NO` [Compound 28j, (S)-1-(4-(3-(3,5-Difluorophenyl)ureido)-3-fluorobenzoyl)-N-(7-(hydroxyamino)-7-oxoheptyl)piperidine-3-carboxamide], half-maximal inhibition against MsEH (IC50) required 103 nM. Besides, inhibition against HDAC1 was half-maximal at 1030 nM (IC50). For the same molecule, the IC50 against HsEH is 3.6 nM. Moreover, the fraction unbound in series [1] is 0.119. Moreover, on HDAC6, it took 8 nM to reach half-maximal inhibition (IC50); the HDAC6 inhibitor rate is > 91% and 98.92%; the “Selectivity Index HDAC1/HDAC6” value is listed as 129; the “Selectivity Index HDAC2/HDAC6” value was 134. For the same molecule, on HDAC6, the “Selectivity Index HDAC3/HDAC6” value was found to be 327, the “Selectivity Index HDAC8/HDAC6” value was found to be 9 and the “Selectivity Index HDAC11/HDAC6” value is 132. Inhibition against HDAC11 was half-maximal at 1050 nM (IC50). The molecule further displayed an IC50 against HDAC2 of 1070 nM.
